In one experiment the target is T1, hA3 AR (Homo sapiens, UniProt P0DMS8).
T1 sequence (P0DMS8 1-318): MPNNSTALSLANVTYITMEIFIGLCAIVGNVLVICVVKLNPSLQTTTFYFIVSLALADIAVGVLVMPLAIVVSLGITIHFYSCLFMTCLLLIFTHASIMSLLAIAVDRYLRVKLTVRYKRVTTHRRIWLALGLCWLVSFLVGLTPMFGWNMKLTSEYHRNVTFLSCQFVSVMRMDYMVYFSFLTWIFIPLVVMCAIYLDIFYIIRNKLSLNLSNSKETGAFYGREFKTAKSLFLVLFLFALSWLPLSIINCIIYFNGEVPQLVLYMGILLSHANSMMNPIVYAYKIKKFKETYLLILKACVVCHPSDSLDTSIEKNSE
The experiment in a line: Radioligand competition binding assay at hA3 AR. As to conditions: for Percentage Inhibition (%) at 10 μM, hA3 AR / inhibition at 10 µM: 10 μM compound; for Percentage Inhibition (%) at 10 μM, hA3 AR / inhibition at 10 µM / Ki: [3H]NECA; for inhibition at 10 µM: read-out: Percentage Inhibition (%) at 10 μM, hA3 AR. On the set-up: expressed in transfected cells; host or cells: Hela-A3 cell line. As to the method: (§1) All the synthesized compounds were screened with radioligand binding assays at hARs. First, the percentage of inhibition was measured by treatment of each hAR subtype with 10 μM of each compound (Table 1).
(§2) hA1, hA2A, and hA3 AR competition binding experiments were carried out in a multiscreen GF/C 96-well plate (Millipore, Madrid, Spain) pretreated with binding buffer (Hepes 20 mM, NaCl 100 mM, MgCl2 10 mM, 2 U/mL adenosine deaminase, pH = 7.4 for hA1 AR; Tris-HCl 50 mM, EDTA 1 mM, MgCl2 10 mM, 2 U/mL adenosine deaminase, pH = 7.4 for hA2A AR; and Tris-HCl 50 mM, EDTA 1 mM, MgCl2 5 mM, 2 U/mL adenosine deaminase, pH = 7.4 for hA3 AR, respectively). In each well was incubated 5 µg of membranes from Euroscreen CHO-A1 cell line, 5µg of membranes from Hela-A2A cell line, or 30µg of membranes from Hela-A3 cell line and prepared in laboratory: 1 nM [^3H]-DPCPX (140 Ci/mmol, 1 mCi/Ml, Perkin Elmer NET974001MC) for hA1 AR; 1 nM [^3H]-ZM241385 (50 Ci/mmol, 1 mCi/mL, ARC-ITISA 0884) for hA2A AR; and 10 nM [^3H]-NECA (29.6 Ci/mmol, 1 mCi/mL, Perkin Elmer NET811250UC) for hA3 AR, respectively; and the compounds studied according to standard protocol. Non-specific binding was determined in the presence of R-PIA 10 µM (Sigma P4532) for hA1 AR; of NECA 50 µM (Sigma E2387) for hA2A AR; and of R-PIA 100 µM (Sigma P4532) for hA3 AR, respectively. The reaction mixture (Vt: 200 µL/well) was incubated at 25 °C for 60 min (hA1 AR), 30min (hA2A AR), or 180min (hA3 AR); whereafter it was filtered and washed four times (hA1 and hA2A AR) or six times (hA3 AR) with 250 μL wash buffer (Hepes 20 mM, NaCl 100 mM, MgCl2 10 mM pH = 7.4, for hA1 AR; Tris-HCl 50 mM, EDTA 1 mM, MgCl2 10 mM, pH = 7.4, for hA2A AR; and Tris-HCl 50mM pH = 7.4, for hA3 AR, respectively) before being measured in a microplate beta scintillation counter (MicrobetaTrilux, PerkinElmer, Madrid, Spain).
A general note: Displacement assays read how much labelled ligand stays bound in the presence of the test substance.

The target in another experiment is T2, hA1 AR (Homo sapiens, UniProt P30542).
T2 construct: host or cells: CHO-A1 (CHO cells expressing hA1 AR)
T2 sequence (P30542 1-326): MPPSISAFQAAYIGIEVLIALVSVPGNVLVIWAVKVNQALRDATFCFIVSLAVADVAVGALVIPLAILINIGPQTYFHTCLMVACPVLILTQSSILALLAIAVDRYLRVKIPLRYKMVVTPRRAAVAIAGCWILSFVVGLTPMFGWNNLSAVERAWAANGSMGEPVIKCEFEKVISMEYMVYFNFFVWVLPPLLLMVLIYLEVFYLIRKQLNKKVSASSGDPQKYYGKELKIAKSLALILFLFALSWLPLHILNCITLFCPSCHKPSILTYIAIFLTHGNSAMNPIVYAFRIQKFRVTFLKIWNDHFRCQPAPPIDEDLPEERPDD
The experiment in a line: Radioligand competition binding assay at hA1 AR. As to conditions: for Percentage Inhibition (%) at 10 μM, hA1 AR / inhibition at 10 µM: 10 μM compound; for Percentage Inhibition (%) at 10 μM, hA1 AR / inhibition at 10 µM / Ki: [3H]DPCPX, CHO cells; for inhibition at 10 µM: read-out: Percentage Inhibition (%) at 10 μM, hA1 AR; for Selectivity (hA1 AR:hA3 AR): ratio of Ki hA1 AR to Ki hA3 AR. As to the method:
as §1, §2

The target of the next experiment is T3, hA2A AR (Homo sapiens, UniProt P29274).
T3 construct: expressed in transfected cells; host or cells: Hela-A2A cell line
T3 sequence (P29274 whole entry): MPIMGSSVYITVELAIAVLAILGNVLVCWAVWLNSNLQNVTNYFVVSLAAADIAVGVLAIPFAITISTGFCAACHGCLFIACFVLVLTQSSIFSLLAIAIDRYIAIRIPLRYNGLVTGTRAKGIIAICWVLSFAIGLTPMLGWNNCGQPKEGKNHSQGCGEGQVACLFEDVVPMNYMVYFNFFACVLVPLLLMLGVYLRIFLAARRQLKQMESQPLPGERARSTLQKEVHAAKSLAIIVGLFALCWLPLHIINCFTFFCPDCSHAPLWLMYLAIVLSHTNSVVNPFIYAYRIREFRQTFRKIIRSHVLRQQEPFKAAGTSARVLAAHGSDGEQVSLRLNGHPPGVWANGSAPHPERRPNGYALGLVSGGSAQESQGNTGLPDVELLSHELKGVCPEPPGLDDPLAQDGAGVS
The experiment in a line: Radioligand competition binding assay at hA2A AR. The settings on record: 10 μM compound, [3H]ZM241385, Hela cells; for inhibition at 10 µM: read-out: Percentage Inhibition (%) at 10 μM, hA2A AR. As to the method:
as §1, §2

The target of a further experiment is T4, hA2B AR (Homo sapiens, UniProt P29275).
T4 construct: host or cells: HEK-A2B (HEK-293T-A2B) cell line
T4 sequence (P29275 1-332): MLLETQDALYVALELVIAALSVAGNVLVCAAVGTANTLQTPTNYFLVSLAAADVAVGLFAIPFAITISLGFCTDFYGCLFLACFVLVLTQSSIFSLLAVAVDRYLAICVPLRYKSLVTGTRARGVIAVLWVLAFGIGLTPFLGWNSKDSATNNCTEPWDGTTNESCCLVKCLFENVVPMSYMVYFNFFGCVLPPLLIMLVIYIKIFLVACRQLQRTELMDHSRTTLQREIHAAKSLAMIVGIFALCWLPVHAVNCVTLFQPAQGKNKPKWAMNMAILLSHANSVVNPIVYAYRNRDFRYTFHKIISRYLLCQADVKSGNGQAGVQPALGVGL
The experiment in a line: Radioligand competition binding assay at hA2B AR. As to conditions: 10 μM compound; [3H]DPCPX; HEK-293 cells; read-out: Percentage Inhibition (%) at 10 μM, hA2B AR. As to the method:
as §1
hA2B AR competition binding experiments were carried out in a multiscreen GF/C 96-well plate. In each well was incubated 25 µg of membranes from Euroscreen HEK-A2B cell line and prepared in laboratory, 25 nM [^3H]-DPCPX (140 Ci/mmol, 1 mCi/mL, Perkin Elmer NET974001MC) and compounds studied according to standard protocol. Non-specific binding was determined in the presence of NECA 1000 µM (Sigma E2397). The reaction mixture (Vt: 250 µL/well) was incubated at 25°C for 30 min, 200 µL was transferred to GF/C 96-well plate (Millipore, Madrid, Spain), and pretreated with binding buffer (Tris-HCl 50 Mm, EDTA 1 mM, MgCl2 5 mM, Bacitracin […], adenosine deaminase 2 U/Ml, pH = 6.5). It was then filtered and washed four times with 250 μL wash buffer (Tris-HCl 50 mM, EDTA 1 mM, MgCl2 5 mM, pH = 6.5), before being measured in a microplate beta scintillation counter (MicrobetaTrilux, PerkinElmer, Madrid, Spain).

Setting [1] is: compared with hydroxyl compound 9a.

Values joined by “and” are separate entries in the source; they are usually repeats but may differ in a detail not shown here. Equal values may be shown once. A value given as a limit tells only on which side of the number the result lay.

By inhibition is commonly meant the change of the read-out against control, counted positive when it falls. Usually Ki stands for a dissociation constant, usually derived from enzyme kinetics or from competition with a known ligand. Low values mean higher affinity, high ones lower affinity. With `COc1ccc(Nc2nc(N)nc(-c3ccc(F)cc3)n2)cc1F` [Compound 11b, N^2-(3-fluoro-4-methoxyphenyl)-6-(4-fluorophenyl)-1,3,5-triazine-2,4-diamine], on hA3 AR, the “Percentage Inhibition (%) at 10 μM, hA3 AR” value was 95 ± 4%; the inhibition at 10 µM was more than 90%; affinity was put at a Ki of 56.6 nM. Moreover, at hA1 AR, the “Percentage Inhibition (%) at 10 μM, hA1 AR” value was determined as 98 ± 1%; the inhibition at 10 µM was more than 90%; the affinity corresponds to a Ki of 98.3 nM; the “Selectivity (hA1 AR:hA3 AR)” value was 1.7 and 1.74. At hA2A AR, the inhibition at 10 µM came out at 49 ± 1%. Besides, the inhibition at 10 µM on hA2B AR stood at 56 ± 1%.
On to `COc1ccc(-c2nc(N)nc(Nc3ccc(OC)c(F)c3)n2)cc1` [Compound 11a, N^2-(3-fluoro-4-methoxyphenyl)-6-(4-methoxyphenyl)-1,3,5-triazine-2,4-diamine], for which, at hA3 AR, the “Percentage Inhibition (%) at 10 μM, hA3 AR” value turned out to be 97 ± 1%; the inhibition at 10 µM is more than 90%; the inhibition constant Ki amounted to 13.3 nM. Besides, the “Improvement of binding affinity at hA3 AR” value on hA3 AR (setting [1]) is given as approximately 5 fold. Besides, at hA1 AR, the “Percentage Inhibition (%) at 10 μM, hA1 AR” value is on record as 95 ± 1%; the inhibition at 10 µM is more than 90%; the Ki worked out at 78.1 nM; the “Selectivity (hA1 AR:hA3 AR)” value is 5.87. Also, the “Improvement of binding affinity at hA1 AR” value at hA1 AR (setting [1]) was “about 2 fold”. For the same compound, the inhibition at 10 µM at hA2A AR is 83 ± 1%. The inhibition at 10 µM at hA2B AR amounted to 65 ± 2%.
With `COc1cc(Nc2nc(N)nc(-c3ccc(O)cc3)n2)ccc1Cl` [Compound 9c, 4-{4-amino-6-[(4-chloro-3-methoxyphenyl)amino]-1,3,5-triazin-2-yl}phenol], on hA3 AR, the “Percentage Inhibition (%) at 10 μM, hA3 AR” value stood at 95 ± 1%; the inhibition at 10 µM is more than 95%; the Ki was determined as 661 nM. In addition, at hA1 AR, the “Percentage Inhibition (%) at 10 μM, hA1 AR” value came out at 99 ± 1%; the inhibition at 10 µM is more than 95%; the affinity, expressed as Ki, was 57.9 nM; the “Selectivity (hA1 AR:hA3 AR)” value stood at 0.0875. Further, at hA2A AR (10 µM), the “Percentage Inhibition (%) at 10 μM, hA2A AR” value is reported as 94 ± 3%. Also, at hA2A AR, the inhibition at 10 µM is more than 95%. The inhibition at 10 µM on hA2B AR is 90 ± 1%.

For the origin of these results see PMC9268102, “Design, Synthesis and Biological Evaluation of 1,3,5-Triazine Derivatives Targeting hA1 and hA3 Adenosine Receptor” (Molecules, 2022).
